These molecules were tested against T1, ChoKα protein (Homo sapiens, UniProt P35790) (assay: Binding affinity by surface plasmon resonance (SensiQ Pioneer, FastStep)). Conditions: not given.
T1 construct: made in house
T1 sequence (P35790 75-457): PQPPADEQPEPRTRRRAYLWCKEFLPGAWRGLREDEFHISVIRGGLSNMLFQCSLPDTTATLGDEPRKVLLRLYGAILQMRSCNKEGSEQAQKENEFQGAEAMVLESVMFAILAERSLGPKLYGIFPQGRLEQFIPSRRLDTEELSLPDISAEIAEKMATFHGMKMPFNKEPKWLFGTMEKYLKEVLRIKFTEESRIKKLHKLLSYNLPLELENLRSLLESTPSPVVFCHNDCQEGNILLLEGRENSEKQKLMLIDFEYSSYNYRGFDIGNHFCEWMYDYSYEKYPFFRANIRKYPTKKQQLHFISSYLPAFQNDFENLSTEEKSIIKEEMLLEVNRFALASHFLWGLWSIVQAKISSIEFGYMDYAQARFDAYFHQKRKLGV
Procedure: KD may be measured using surface plasmon resonance (BIAcore®) technology, see, e.g., Panayotou et al, Mol. Cell. […] ChoKα protein was immobilized by standard amine coupling methods on a COOH5 sensor chip installed in a SensiQ Pioneer system. Sensograms were measured using the FastStep™ screen method with an upper concentration of 500 nM. Kinetics and affinity were obtained from fits using a 1:1 binding model.
`COC(=O)c1ccc(-c2ccc(CN3CCCN(C)CC3)cc2)cc1` [Example 158, methyl 4′-((4-methyl-1,4-diazepan-1-yl)methyl)-[1,1′-biphenyl]-4-carboxylate] was tested, and the Kd was < 60000 nM.

Same assay, conditions: SPR, 1:1 binding model, upper concentration 500 nM; read-out: Kd
In the case of `Cc1cc(CN2CCCN(C)CC2)ccc1-c1ccc(CO)cc1` [Example 51, (2′-methyl-4′-((4-methyl-1,4-diazepan-1-yl)methyl)-[1,1′-biphenyl]-4-yl)methanol], the Kd is reported as < 60000 nM.

What follows are molecules tested against T2, truncated form of human Choline kinase α1 that includes residues 75-457 (Homo sapiens, UniProt P35790) (assay: Kinase Assay, coupled (ATP regeneration) LDH/PK assay, NADH absorbance). Conditions: not given.
T2 construct: made in house
T2 sequence (P35790 75-457): as above
Type: biochemical
Procedure: Absorbance of NADH (340 nm) was measured over 30 min using a SpectraMax M5 (Molecular Devices). Initial reaction velocity (ΔA340/Δt) was calculated and plotted as a function of inhibitor concentration in a 2-fold dilution series. IC50 values were obtained by fitting the relative velocities to a dose-response model.
`COC(=O)c1ccc(-c2ccc(CN3CCCN(C)CC3)cc2)cc1` [Example 158, methyl 4′-((4-methyl-1,4-diazepan-1-yl)methyl)-[1,1′-biphenyl]-4-carboxylate] was tested, and the IC50 was < 200 nM.
With `CN1CCCN(Cc2ccc(-c3ccc(C(=O)N4CCOCC4)cc3)c(C#N)c2)CC1` [Example 36, 4-((4-methyl-1,4-diazepan-1-yl)methyl)-4′-(morpholine-4-carbonyl)-[1,1′-biphenyl]-2-carbonitrile] the IC50 was < 2000 nM.

Same assay, conditions: Examples designated with an asterisk (*): version 1 of the Kinase Assay, 200 nM enzyme; read-out: IC50
With `CN1CCCN(Cc2ccc(Cn3cncn3)cc2)CC1` [Example 143, 1-(4-((1H-1,2,4-triazol-1-yl)methyl)benzyl)-4-methyl-1,4-diazepane] the IC50 was < 50000 nM.

Same assay, conditions: Examples not designated with an asterisk; footnote prints version 1 of the Kinase Assay; read-out: IC50
In the case of `Cc1cc(CN2CCCN(C)CC2)ccc1-c1ccc(CO)cc1` [Example 51, (2′-methyl-4′-((4-methyl-1,4-diazepan-1-yl)methyl)-[1,1′-biphenyl]-4-yl)methanol], the IC50 is reported as < 200 nM.
`CN1CCCN(Cc2ccc(-c3ccc(CNCCNC(=O)OC(C)(C)C)cc3)c(C#N)c2)CC1` [Example 10, tert-butyl(2-(((2′-cyano-4′-((4-methyl-1,4-diazepan-1-yl)methyl)-[1,1′-biphenyl]-4-yl)methyl)amino)ethyl)carbamate] was tested, and the IC50 was < 500 nM.
`CN1CCCN(Cc2ccc(-c3ccc(CN4CCCN(C)CC4)c(C#N)c3)cc2)CC1` [Example 155, 4,4′-bis((4-methyl-1,4-diazepan-1-yl)methyl)-[1,1′-biphenyl]-3-carbonitrile] was tested, and the IC50 was < 500 nM.
`CN1CCCN(Cc2ccc(-c3ccc(C(=O)N4CCCN(C)CC4)cc3-c3ccc(C(=O)N(C)C)cc3)c(C#N)c2)CC1` [Example 76] was tested, and the IC50 was < 2000 nM.
With `CN1CCCN(Cc2ccc(-c3ccc(C(=O)N4CCC(N5CCOCC5)CC4)cc3)cc2)CC1` [Example 39, (4′-((4-methyl-1,4-diazepan-1-yl)methyl)-[1,1′-biphenyl]-4-yl)(4-morpholinopiperidin-1-yl)methanone] the IC50 was < 50000 nM.
In the case of `CON(C)C(=O)c1ccc(-c2ccc(CN3CCCN(C)CC3)cc2C#N)cc1` [Example 35, 2′-cyano-N-methoxy-N-methyl-4′-((4-methyl-1,4-diazepan-1-yl)methyl)-[1,1′-biphenyl]-4-carboxamide], the IC50 is reported as < 500 nM.
In the case of `CC(=O)N1CCN(c2ccc(-c3ccc(CN4CCCN(C)CC4)cc3)cn2)CC1` [Example 120, 1-(4-(5-(4-((4-methyl-1,4-diazepan-1-yl)methyl)phenyl)pyridin-2-yl)piperazin-1-yl)ethanone], the IC50 is reported as < 2000 nM.
`COCCN1CCN(Cc2ccc(-c3ccc(CN4CCCN(C)CC4)cc3C#N)cc2)CC1` [Example 3, 4′-((4-(2-methoxyethyl)piperazin-1-yl)methyl)-4-((4-methyl-1,4-diazepan-1-yl)methyl)-[1,1′-biphenyl]-2-carbonitrile] was tested, and the IC50 was < 500 nM.
For `Cc1ccc(-c2cc(C(=O)N3CCCN(C)CC3)ccc2-c2ccc(CN3CCCN(C)CC3)cc2C#N)cc1` [Example 70, 4″-methyl-4-((4-methyl-1,4-diazepan-1-yl)methyl)-4′-(4-methyl-1,4-diazepane-1-carbonyl)-[1,1′1:2′,1″-terphenyl]-2-carbonitrile], the IC50 was < 500 nM.
With `Cc1cc(-c2ccc(CN3CCCN(C)CC3)cc2)ccc1CN1CCCN(C)CC1` [Example 54, 4,4′-((3-methyl-[1,1′-biphenyl]-4,4′-diyl)bis(methylene))bis(1-methyl-1,4-diazepane)] the IC50 was < 500 nM.
In the case of `CN1CCCN(Cc2ccc(-c3ccc(C(=O)N4CCCN(C)CC4)cc3F)cc2)CC1` [Example 59, (2-fluoro-4′-((4-methyl-1,4-diazepan-1-yl)methyl)-[1,1′-biphenyl]-4-yl)(4-methyl-1,4-diazepan-1-yl)methanone], the IC50 is reported as < 2000 nM.
With `CC(=O)N1CC=C(c2ccc(CN3CCCN(C)CC3)cc2C#N)CC1` [Example 103, 2-(1-acetyl-1,2,3,6-tetrahydropyridin-4-yl)-5-((4-methyl-1,4-diazepan-1-yl)methyl)benzonitrile] the IC50 was < 500 nM.
